Test results reported in US9521846B2, “Template-fixed peptidomimetics with antimicrobial activity” (priority 2006, dated 2016).
Converted amounts (≈) assume the structure as drawn. Non-standard residues stand in square brackets, D forms with d. Residues, ends and D or L forms follow the SMILES beside them. Ala(cPr) = N[C@@H](CC1CC1)C(=O)O; Chg = N[C@H](C(=O)O)C1CCCCC1; dDab = NCC[C@@H](N)C(=O)O; Nle = CCCC[C@H](N)C(=O)O; Orn = NCCC[C@H](N)C(=O)O; Dab = NCC[C@H](N)C(=O)O; Nva = CCC[C@H](N)C(=O)O

Experiments:
HELA cells (Acc57) = test: Cytotoxicity assay, MTT reduction (LC 50, GI 50); type: cell-based
Experimental: The cytotoxicity of the peptides to HELA cells (Acc57) and COS-7 cells (CRL-1651) was determined using the MIT reduction assay [see ref. 2 and 3, below]. Briefly the method was as follows: HELA cells and COS-7 cells were seeded at 7.0×10^3 and, respectively, 4.5×10^3 cells per well and grown in 96-well […] plates for 24 hours at 37° C. at 5% CO2. At this point, time zero (Tz) was determined by MTT reduction (see below). The supernatant of the remaining wells was discarded, and fresh medium and the peptides in serial dilutions of 12.5, 25 and 50 μM were dispensed into the wells. Each peptide concentration was assayed in triplicate. Incubation of the cells was continued for 48 hours at 37° C. at 5% CO2. Wells were then washed once with phosphate buffered saline (PBS) and subsequently 100 μl MIT reagent (0.5 mg/ml in medium RPMI1640 and, respectively, DMEM) were added to the wells. This was incubated at 37° C. for 2 hours and subsequently the medium was aspirated and 100 μl isopropanol were added to each well. The absorbance at 595 nm of the solubilized product was measured (OD595peptide). For each concentration averages were calculated from triplicates. The percentage of growth was calculated as follows: (OD595peptide-OD595Tz-OD595Empty well)/(OD595Tz-OD595Empty well)×100% and was plotted for each peptide concentration.
The LC 50 values (Lethal Concentration, defined as the concentration that kills 50% of the cells) were determined for each peptide by using the trend line function of EXCEL (Microsoft Office 2000) for the concentrations (50, 25, 12.5 and 0 μM), the corresponding growth percentages and the value −50, (=TREND(C50:C0,%50:%0,−50)). The GI 50 (Growth Inhibition) concentrations were calculated for each peptide by using a trend line function for the concentrations (50, 25, 12.5 and 0 […]), the corresponding percentages and the value 50, (=TREND (C50:C0,%50:%0,50).

P. aeruginosa ATCC 27853 = type: cell-based, Pseudomonas aeruginosa; conditions: ATCC 27853
Experimental: (§1) The selective antimicrobial activities of the peptides were determined in 96-well plates (Nunclon polystyrene) by the standard NCCLS broth microdilution method (see ref 1, below) with slight modifications. Innocula of the microorganisms were diluted into Mueller-Hinton (MH) broth+0.02% BSA and compared with a 0.5 Mcfarland standard to give appr. 10^6 colony forming units (CFU)/ml. Aliquots (50 μl) of inoculate were added to 50 μl of MH broth+0.02% BSA containing the peptide in serial two-fold dilutions. The following microorganisms were used to determine antibiotic selectivity of the peptides: Escherichia coli (ATCC 25922), Pseudomonas aeruginosa (P. aeruginosa ATCC 27853, P8191900, P1021903, P1021913, IMP 1 Livermore 3140).

[1] = test system: Pseudomonas aeruginosa P8191900; type: cell-based; conditions: P8191900
Experimental: as §1

[2] = test system: Pseudomonas aeruginosa P1021903; type: cell-based; conditions: P1021903
Experimental: as §1

[3] = test system: Pseudomonas aeruginosa P1021913; type: cell-based; conditions: P1021913
Experimental: as §1

[4] = test system: Pseudomonas aeruginosa IMP 1 Livermore 3140; type: cell-based; conditions: IMP 1 Livermore 3140
Experimental: as §1

[5] = test system: human red blood cells (hRBC); test: Hemolysis; type: cell-based; conditions: 100
Experimental: Hemolysis of red blood cells is often employed for assessment of toxicity of related compounds such as protegrin or tachyplesin. Values are given as %-lysis of red blood cells observed at a concentration of 100 μg/ml. Typical values determined for cationic peptides such as protegrin and tachyplesin range between 30-40% with average MIC-values of 1-5 μg/ml over a wide range of pathogens.
The peptides were tested for their hemolytic activity against human red blood cells (hRBC). Fresh hRBC were washed three times with phosphate buffered saline (PBS) by centrifugation for 10 min at 2000×g. Peptides at a concentration of 100 μM were incubated with 20% v/v hRBC for 1 hour at 37° C. The final erythrocyte concentration was approximately 0.9×10^9 cells per ml. A value of 0% and, respectively, 100% cell lysis was determined by incubation of the hRBC in the presence of PBS alone and, respectively, 0.1% Triton X-100 in H2O. The samples were centrifuged, the supernatant was 20-fold diluted in PBS buffer and the optical density (OD) of the sample at […] was measured. The 100% lysis value (OD540H20) gave an OD540 of approximately 1.3-1.8. Percent hemolysis was calculated as follows: (OD540peptide/OD540H20)×100%.

Compound	Average MIC (P. aeruginosa)	Cytotoxicity GI50 Hela cells (HELA cells (Acc57))	MIC P. aeruginosa ATCC 27853 (P. aeruginosa ATCC 27853)	MIC P. aeruginosa P8191900 [1]	MIC P. aeruginosa P1021903 [2]	MIC P. aeruginosa P1021913 [3]	MIC P. aeruginosa IMP1 Livermore 3140 [4]	Hemolysis at 100 μg/ml [5]
C[C@@H]1NC(=O)[C@H](CCN)NC(=O)[C@H](CCN)NC(=O)[C@H](Cc2c[nH]c3ccccc23)NC(=O)[C@H](CCN)NC(=O)[C@H](CCN)NC(=O)[C@H](CCCCN)NC(=O)[C@H](CCN)NC(=O)[C@H](C2CCCCC2)NC(=O)[C@H](Cc2c[nH]c3ccccc23)NC(=O)[C@H]([C@@H](C)O)NC(=O)[C@@H]2CCCN2C(=O)[C@H]2CCCN2C(=O)[C@H](CCN)NC1=O [Example 33] (cyclo(TW[Chg][Dab]K[Dab][Dab]W[Dab][Dab]A[Dab][dP]P))	0.25 µg/mL	50 µM	0.05 µg/mL (≈ 0.0311 µM)	0.18 µg/mL (≈ 0.112 µM)	0.29 µg/mL (≈ 0.18 µM)	0.31 µg/mL (≈ 0.193 µM)	0.43 µg/mL (≈ 0.268 µM)	0.1%
CCCC[C@@H]1NC(=O)[C@H](Cc2c[nH]c3ccccc23)NC(=O)[C@H]([C@@H](C)O)NC(=O)[C@@H]2CCCN2C(=O)[C@H]2CCCN2C(=O)[C@H](CCN)NC(=O)[C@H](C)NC(=O)[C@H](CCN)NC(=O)[C@H](CCN)NC(=O)[C@H](Cc2c[nH]c3ccccc23)NC(=O)[C@H](CCN)NC(=O)[C@H](CCN)NC(=O)[C@H](CCCCN)NC(=O)[C@H](CCN)NC1=O [Example 31] (cyclo(TW[Nle][Dab]K[Dab][Dab]W[Dab][Dab]A[Dab][dP]P))	0.20 µg/mL	50 µM	0.03 µg/mL (≈ 0.019 µM)	0.16 µg/mL (≈ 0.101 µM)	0.40 µg/mL (≈ 0.253 µM)	0.16 µg/mL (≈ 0.101 µM)	0.24 µg/mL (≈ 0.152 µM)	0.5%
CC[C@H](C)[C@@H]1NC(=O)[C@H](Cc2ccc(O)cc2)NC(=O)[C@H](CC(=O)O)NC(=O)[C@@H]2CCCN2C(=O)[C@H]2CCCN2C(=O)[C@H](CCN)NC(=O)[C@H](C)NC(=O)[C@H](CCN)NC(=O)[C@H](CCN)NC(=O)[C@H](Cc2c[nH]c3ccccc23)NC(=O)[C@H](CCN)NC(=O)[C@@H](CCN)NC(=O)[C@H](CCCCN)NC(=O)[C@H](CCN)NC1=O [Example 42] (cyclo(DYI[Dab]K[dDab][Dab]W[Dab][Dab]A[Dab][dP]P))	0.29 µg/mL	50 µM	0.25 µg/mL (≈ 0.159 µM)	0.06 µg/mL (≈ 0.0382 µM)	0.125 µg/mL (≈ 0.0795 µM)	0.50 µg/mL (≈ 0.318 µM)	0.50 µg/mL (≈ 0.318 µM)	0.2%
CCC[C@@H]1NC(=O)[C@H](CCN)NC(=O)[C@H](CCN)NC(=O)[C@H](Cc2c[nH]c3ccccc23)NC(=O)[C@H](CCN)NC(=O)[C@H](CCN)NC(=O)[C@H](CCCCN)NC(=O)[C@H](CCN)NC(=O)[C@H]([C@@H](C)CC)NC(=O)[C@H](Cc2c[nH]c3ccccc23)NC(=O)[C@H]([C@@H](C)O)NC(=O)[C@@H]2CCCN2C(=O)[C@H]2CCCN2C(=O)[C@H](CCN)NC1=O [Example 10] (cyclo(TWI[Dab]K[Dab][Dab]W[Dab][Dab][Nva][Dab][dP]P))	0.23 µg/mL	50 µM	0.05 µg/mL (≈ 0.0311 µM)	0.18 µg/mL (≈ 0.112 µM)	0.13 µg/mL (≈ 0.0808 µM)	0.37 µg/mL (≈ 0.23 µM)	0.43 µg/mL (≈ 0.267 µM)	0%
CC[C@H](C)[C@@H]1NC(=O)[C@H](Cc2c[nH]c3ccccc23)NC(=O)[C@H]([C@@H](C)O)NC(=O)[C@@H]2CCCN2C(=O)[C@H]2CCCN2C(=O)[C@H](CCN)NC(=O)[C@H](C2CCCCC2)NC(=O)[C@H](CCN)NC(=O)[C@H](CCN)NC(=O)[C@H](Cc2c[nH]c3ccccc23)NC(=O)[C@H](CCN)NC(=O)[C@H](CCN)NC(=O)[C@H](CCCCN)NC(=O)[C@H](CCN)NC1=O [Example 11] (cyclo(TWI[Dab]K[Dab][Dab]W[Dab][Dab][Chg][Dab][dP]P))	>1 µg/mL	50 µM	0.30 µg/mL (≈ 0.182 µM)	1.00 µg/mL (≈ 0.606 µM)	2.00 µg/mL (≈ 1.21 µM)	0.75 µg/mL (≈ 0.455 µM)	>2 µg/mL	0.5%
CC[C@H](C)[C@@H]1NC(=O)[C@H](Cc2c[nH]c3ccccc23)NC(=O)[C@H](CCC(=O)O)NC(=O)[C@@H]2CCCN2C(=O)[C@H]2CCCN2C(=O)[C@H](CCN)NC(=O)[C@H](C)NC(=O)[C@H](CCN)NC(=O)[C@H](CCN)NC(=O)[C@H](Cc2c[nH]c3ccccc23)NC(=O)[C@H](CCN)NC(=O)[C@@H](CCN)NC(=O)[C@H](CCCN)NC(=O)[C@H](CCN)NC1=O [Example 47] (cyclo(EWI[Dab][Orn][dDab][Dab]W[Dab][Dab]A[Dab][dP]P))	0.32 µg/mL	50 µM	0.09 µg/mL (≈ 0.0564 µM)	0.13 µg/mL (≈ 0.0815 µM)	0.13 µg/mL (≈ 0.0815 µM)	0.50 µg/mL (≈ 0.314 µM)	0.75 µg/mL (≈ 0.47 µM)	0.2%
CC[C@H](C)[C@@H]1NC(=O)[C@H](Cc2c[nH]c3ccccc23)NC(=O)[C@H]([C@@H](C)O)NC(=O)[C@@H]2CCCN2C(=O)[C@H]2CCCN2C(=O)[C@H](CCN)NC(=O)[C@H](CC2CC2)NC(=O)[C@H](CCN)NC(=O)[C@H](CCN)NC(=O)[C@H](Cc2c[nH]c3ccccc23)NC(=O)[C@H](CCN)NC(=O)[C@H](CCN)NC(=O)[C@H](CCCCN)NC(=O)[C@H](CCN)NC1=O [Example 37] (cyclo(TWI[Dab]K[Dab][Dab]W[Dab][Dab][Ala(cPr)][Dab][dP]P))	0.42 µg/mL	50 µM	0.06 µg/mL (≈ 0.037 µM)	0.18 µg/mL (≈ 0.111 µM)	0.31 µg/mL (≈ 0.191 µM)	0.37 µg/mL (≈ 0.228 µM)	1.17 µg/mL (≈ 0.722 µM)	0.5%
